The source of these data is ChEMBL document CHEMBL1147703, “Synthesis of a potent 5'-methylthioadenosine/S-adenosylhomocysteine (MTAN) inhibitor” (Bioorg Med Chem Lett, 2006).

The target in the assay is 5'-methylthioadenosine/S-adenosylhomocysteine nucleosidase (Escherichia coli O157:H7, UniProt P0AF14). Nature of the assay: Inhibition of Escherichia coli MTAN.
5'-methylthioadenosine/S-adenosylhomocysteine nucleosidase, sequence (P0AF14 whole entry): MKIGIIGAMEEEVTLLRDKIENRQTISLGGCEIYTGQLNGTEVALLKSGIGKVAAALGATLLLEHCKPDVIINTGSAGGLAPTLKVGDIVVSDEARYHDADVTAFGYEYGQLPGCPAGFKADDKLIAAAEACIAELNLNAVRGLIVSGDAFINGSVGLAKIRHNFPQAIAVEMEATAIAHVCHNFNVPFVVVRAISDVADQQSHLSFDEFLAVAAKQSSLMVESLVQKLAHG

Regarding `Nc1ncnc2c([C@@H]3N[C@H](CSCCC(N)C(=O)O)[C@@H](O)[C@H]3O)c[nH]c12` (stereo partly specified), affinity was put at a Ki of 1.7 nM.
